# Assay results from patent US20190202836A1, “SELECTIVE DUAL INHIBITORS OF PI3 DELTA AND GAMMA PROTEIN KINASES” (Rhizen Pharmaceuticals SA, priority 2014, published 2019).
# Where two headings read alike, the source gives them in different places.
# Experiments:
# [1] = Metabolic stability in dog liver microsomes; type: in vitro ADME
# [2] = Metabolic stability in monkey liver microsomes; type: in vitro ADME
# Protocol: (§1) Metabolic stability studies were conducted on Compounds A, A1, and A2 as well as Example 128 of WO 2012/151525 using mouse, rat, dog, monkey, and human liver microsomes. The protocol for the studies with mouse, rat, and human liver microsomes (all from BD Gentest, USA) is provided below. 0.4 mg protein was preincubated with 2 mM NADPH (cofactor) in phosphate buffer (pH-7.4) for 15 minutes at 37° C. and then added with 1 μM test item and incubated further for 60 minutes in triplicate. The reaction mixture was terminated with methanol containing an internal standard and centrifuged further to analyze the test item remaining in the supernatant by LC-MS/MS. The percent parent compound remaining was calculated in comparison with similar samples terminated at 0 minutes.
# [3] = Metabolic stability in mouse liver microsomes; type: in vitro ADME; settings: 1 μM test item, 60 minutes, 37° C., NADPH
# Protocol: as §1
# PI3Kγ = PI3Kγ (Homo sapiens, UniProt P48736); assay: Assay 1: Fluorescent (HTRF) determination of PI3 kinase enzyme activity, PI3Kγ; type: biochemical
# PI3Kγ, sequence (P48736 whole entry, canonical isoform): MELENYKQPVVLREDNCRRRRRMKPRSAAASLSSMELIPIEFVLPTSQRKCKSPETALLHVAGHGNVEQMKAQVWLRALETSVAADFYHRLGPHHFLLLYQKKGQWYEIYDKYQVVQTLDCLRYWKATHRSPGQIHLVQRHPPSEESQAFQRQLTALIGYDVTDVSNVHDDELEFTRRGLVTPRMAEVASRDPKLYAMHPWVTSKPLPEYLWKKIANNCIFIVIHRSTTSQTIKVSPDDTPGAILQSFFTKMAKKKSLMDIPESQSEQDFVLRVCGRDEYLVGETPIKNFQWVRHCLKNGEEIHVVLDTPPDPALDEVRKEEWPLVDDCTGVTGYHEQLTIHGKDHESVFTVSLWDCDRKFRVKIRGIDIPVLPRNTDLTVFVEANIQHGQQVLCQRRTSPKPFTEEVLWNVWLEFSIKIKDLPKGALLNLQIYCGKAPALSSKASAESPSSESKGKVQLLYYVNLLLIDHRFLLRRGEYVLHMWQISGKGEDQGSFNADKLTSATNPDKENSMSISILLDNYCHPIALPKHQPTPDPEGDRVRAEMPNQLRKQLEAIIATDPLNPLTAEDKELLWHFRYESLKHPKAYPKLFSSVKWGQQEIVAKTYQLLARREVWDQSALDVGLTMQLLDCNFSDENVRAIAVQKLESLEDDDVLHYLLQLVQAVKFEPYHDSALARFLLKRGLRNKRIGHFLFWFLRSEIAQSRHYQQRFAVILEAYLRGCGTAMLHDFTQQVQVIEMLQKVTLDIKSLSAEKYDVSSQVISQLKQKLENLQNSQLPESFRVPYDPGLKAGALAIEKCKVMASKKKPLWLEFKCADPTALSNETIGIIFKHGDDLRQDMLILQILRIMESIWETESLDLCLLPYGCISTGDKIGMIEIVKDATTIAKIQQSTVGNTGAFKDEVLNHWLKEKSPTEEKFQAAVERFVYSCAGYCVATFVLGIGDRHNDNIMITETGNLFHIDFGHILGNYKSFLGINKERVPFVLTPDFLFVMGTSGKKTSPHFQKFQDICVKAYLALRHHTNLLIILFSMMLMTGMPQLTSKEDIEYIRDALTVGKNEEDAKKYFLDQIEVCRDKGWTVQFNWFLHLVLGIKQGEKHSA
# From the text: (§2) Phosphoinositide 3 kinases (PI3K) belong to a class of lipid kinases that play a critical role in the regulation of several key cellular processes. The PI3K are capable of phosphorylating the 3-hydroxy position of phosphoinositols thereby generating second messengers involved in downstream signaling events. The homogenous time resolved fluorescence (HTRF) assay allows detection of 3,4,5-triphosphate (PIPS) formed as a result of phosphorylation of phosphotidylinositol 4,5-biphosphate (PIP2) by PI3K isoforms such as α, β, γ or δ.
# (§3) PI3K isoform activity for α, β, γ or δ was determined using a PI3K human HTRF™ Assay Kit (Millipore, Billerica, Mass.) with modifications. All incubations were carried out at room temperature. 0.5 μl of 40× inhibitor (in 100% DMSO) or 100% DMSO were added to each well of a 384-well white plate (Greiner Bio-One, Monroe, N.C.) containing 14.5 μl 1× reaction buffer/PIP2 (10 mM MgCl2, 5 mM DTT, 1.38 μM PIP2) mix with or without enzyme, followed by 5 μl/well of 400 μM ATP and incubated for an additional 30 minutes. The reaction was terminated by adding 5 μl/well stop solution (Millipore, Billerica, Mass.). 5 μl of detection mix (Millipore, Billerica, Mass.) was then added to each well and incubated for 6-18 hours in the dark. HRTF ratio was measured on a microplate reader (BMG Labtech., Germany) at an excitation wavelength of 337 nm and emission wavelengths of 665 and 615 nm with an integration time of 400 msec counting delay of 50 msec.
# [4] = Metabolic stability in rat liver microsomes; type: in vitro ADME; settings: 1 μM test item, 60 minutes, 37° C., NADPH
# Protocol: as §1
# PI3Kδ = PI3Kδ (Homo sapiens, UniProt O00329); assay: Assay 1: Fluorescent (HTRF) determination of PI3 kinase enzyme activity, PI3Kδ; type: biochemical
# PI3Kδ, sequence (O00329 whole entry): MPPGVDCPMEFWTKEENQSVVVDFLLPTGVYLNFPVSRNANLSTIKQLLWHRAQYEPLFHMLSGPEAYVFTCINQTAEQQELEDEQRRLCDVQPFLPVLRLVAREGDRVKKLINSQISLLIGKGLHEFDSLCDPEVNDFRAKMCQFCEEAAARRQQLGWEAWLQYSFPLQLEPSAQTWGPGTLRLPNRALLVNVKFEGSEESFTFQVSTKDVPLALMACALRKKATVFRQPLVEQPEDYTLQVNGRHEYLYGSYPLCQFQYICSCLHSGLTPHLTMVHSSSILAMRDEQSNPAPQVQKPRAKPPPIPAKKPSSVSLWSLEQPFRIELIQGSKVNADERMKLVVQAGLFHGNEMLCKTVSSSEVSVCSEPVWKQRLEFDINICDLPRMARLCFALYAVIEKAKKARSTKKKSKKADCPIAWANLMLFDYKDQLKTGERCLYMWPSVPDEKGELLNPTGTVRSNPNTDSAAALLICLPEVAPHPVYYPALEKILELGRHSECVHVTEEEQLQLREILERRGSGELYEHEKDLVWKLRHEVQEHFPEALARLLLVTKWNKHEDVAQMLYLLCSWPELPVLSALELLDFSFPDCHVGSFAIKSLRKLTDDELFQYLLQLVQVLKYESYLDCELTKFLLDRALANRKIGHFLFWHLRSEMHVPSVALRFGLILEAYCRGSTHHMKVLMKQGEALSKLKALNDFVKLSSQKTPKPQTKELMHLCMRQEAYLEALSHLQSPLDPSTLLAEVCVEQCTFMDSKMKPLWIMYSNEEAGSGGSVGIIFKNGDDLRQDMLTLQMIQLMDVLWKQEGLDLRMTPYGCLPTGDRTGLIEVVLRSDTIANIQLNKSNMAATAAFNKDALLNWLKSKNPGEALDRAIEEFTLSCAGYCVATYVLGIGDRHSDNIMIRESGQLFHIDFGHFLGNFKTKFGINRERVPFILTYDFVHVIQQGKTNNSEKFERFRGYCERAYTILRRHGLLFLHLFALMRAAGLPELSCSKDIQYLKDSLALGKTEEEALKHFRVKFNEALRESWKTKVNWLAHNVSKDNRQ
# PI3Kδ, sequence (P27986 whole entry partner): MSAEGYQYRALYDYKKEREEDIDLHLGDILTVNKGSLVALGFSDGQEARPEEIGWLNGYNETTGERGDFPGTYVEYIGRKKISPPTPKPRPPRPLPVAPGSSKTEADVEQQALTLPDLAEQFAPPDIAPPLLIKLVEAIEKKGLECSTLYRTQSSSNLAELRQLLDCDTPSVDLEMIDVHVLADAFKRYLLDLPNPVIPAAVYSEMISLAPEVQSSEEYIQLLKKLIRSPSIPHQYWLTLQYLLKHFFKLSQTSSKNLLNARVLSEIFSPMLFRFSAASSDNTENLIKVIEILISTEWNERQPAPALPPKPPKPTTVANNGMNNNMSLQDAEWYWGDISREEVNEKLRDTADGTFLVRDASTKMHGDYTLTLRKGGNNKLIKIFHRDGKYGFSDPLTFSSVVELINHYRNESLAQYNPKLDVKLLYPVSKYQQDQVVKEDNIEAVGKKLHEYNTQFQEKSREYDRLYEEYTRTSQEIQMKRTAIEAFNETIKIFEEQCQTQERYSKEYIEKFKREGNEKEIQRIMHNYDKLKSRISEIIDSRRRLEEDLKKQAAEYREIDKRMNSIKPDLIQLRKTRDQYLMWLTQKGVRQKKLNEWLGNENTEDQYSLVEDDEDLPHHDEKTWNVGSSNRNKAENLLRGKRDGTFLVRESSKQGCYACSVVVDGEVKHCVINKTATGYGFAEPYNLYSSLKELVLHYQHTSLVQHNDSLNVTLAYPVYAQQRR
# From the text: as §2, §3
# [5] = Metabolic stability in human liver microsomes; type: in vitro ADME; settings: 1 μM test item, 60 minutes, 37° C., NADPH
# Protocol: as §1
# [6] = Oral pharmacokinetics in rats; type: in vivo; settings: Rat, 10 mg/kg
# Protocol: The oral bioavailability of Compound A1 (free base) was evaluated in rats and mice. The protocol for the pharmacokinetics studies in rat is provided below.
# All animals were fasted overnight (12 hours) before dosing and continued till 4.0 hours after administration of test item. Test item formulations were prepared in 1% Tween 80 and 99% media (0.5% Methyl cellulose, 4000cPs, pH 2.2). The blood samples (150 μL from each animal) were collected from the orbital sinus, and placed into a micro centrifuge tube containing disodium EDTA as an anticoagulant. Blood samples were centrifuged immediately with a speed of 1000 g for 10 min at 4° C. and separated plasma samples were frozen at below −80° C. and stored until analysis. The concentrations of test item in all formulations were analyzed by HPLC. The plasma concentrations of test item in all samples were analyzed by LC-MS/MS. Pharmacokinetic parameters (Cmax, AUC0-t, Tmax, and t^1/2) were estimated by using WinNonlin software. Results are provided in Table 3 for Compound A, A1, and Example 128 of WO 2012/151525 in rats and Compound A1 in mice.
# [7] = reported at 55th ASH Annual Meeting, 2013; cited from earlier work
"Metabolic stability in liver microsomes (percent parent compound remaining), Dog [1]","Metabolic stability in liver microsomes (percent parent compound remaining), Monkey [2]","Metabolic stability in liver microsomes (percent parent compound remaining), Mouse [3]",IC50 (PI3Kγ; read-out: IC50 (nM) PI3Kγ),"Metabolic stability in liver microsomes (percent parent compound remaining), Rat [4]",IC50 (PI3Kδ),"Metabolic stability in liver microsomes (percent parent compound remaining), Human [5]",fold increase in AUC0-t as compared to Example 128 of WO 2012/151525 [6],fold increase in Cmax as compared to Example 128 of WO 2012/151525 [6],fold increase in t1/2 as compared to Example 128 of WO 2012/151525 [6],AUC(0-t) ([6]; plasma),Cmax ([6]; plasma),Tmax ([6]; plasma),half-life ([6]; plasma),IC50 (PI3Kγ; read-out: IC50 Pi3Kγ (cell prints μM)),SMILES,maximum tolerated dose (MTD) [7]
64.3%,42.3%,96%,82.9 nM,91%,103 nM,69.7%,~4 fold,~1.5 fold,~2.8 fold,7.95 µM·h,1020 nM,2.67 h,4.52 h,–,"COc1ccc(-c2nn(C(C)c3oc4cccc(F)c4c(=O)c3-c3cccc(F)c3)c3ncnc(N)c23)cc1NS(C)(=O)=O (racemic) [Compound A, (RS)—N-(5-(4-amino-1-(1-(5-fluoro-3-(3-fluorophenyl)-4-oxo-4H-chromen-2-yl)ethyl)-1H-pyrazolo[3,4-d]pyrimidin-3-yl)-2-methoxyphenyl)methanesulfonamide]",–
52.3%,1.9%,68.9%,> 10000 nM,79.5%,92.9 nM,60.2%,–,–,–,–,–,–,–,> 10000 nM,"COc1ccc(-c2nn([C@H](C)c3oc4cccc(F)c4c(=O)c3-c3cccc(F)c3)c3ncnc(N)c23)cc1NS(C)(=O)=O [Compound A2, (R)—N-(5-(4-amino-1-(1-(5-fluoro-3-(3-fluorophenyl)-4-oxo-4H-chromen-2-yl)ethyl)-1H-pyrazolo[3,4-d]pyrimidin-3-yl)-2-methoxyphenyl)methanesulfonamide]",–
–,–,–,–,–,–,–,–,–,–,–,–,–,–,–,C[C@H](Nc1ncnc2[nH]cnc12)c1cc2cccc(Cl)c2c(=O)n1-c1ccccc1 [IPI-45],75 mg BID
